Results from patent US8410309B2, “Phenoxy carboxylic acid compounds and compositions for delivering active agents” (Emisphere Technologies, Inc., priority 1999, dated 2013).
Values joined by “and” are separate entries in the source; they are usually repeats but may differ in a detail not shown here. Equal values may be shown once.

How the values were obtained:
[1] = Salmon calcitonin (sCT) oral delivery, serum sCT by EIA; conditions: rats, delivery agent compound dose 150 mg/kg, sCT dose 30 μg/kg, dose volume 1 (ml)
[2] = Insulin pulmonary delivery, serum insulin by ELISA, ratio to insulin-alone control; type: in vivo, Sprague-Dawley rats; conditions: rats; for Cmax (serum insulin): Table 9 pulmonary delivery, volume 1 ml/kg, delivery agent compound 3 mg/kg, insulin 100 mg/kg (so in the source)
Description: Dosing compositions of delivery agent compound and human insulin in water were prepared. Typically, to 1.5 mg of delivery agent compound was added deionized water to bring the volume to 1.0 ml, and the solution was vortexed. […] The pH was adjusted to between about 7.0 to 8.5 with NaOH or HCl. […] The final delivery agent compound dose, insulin dose and volume dose amounts are listed below in Table 9.
The typical dosing and sampling protocols were as follows. […] A control group of five animals was dosed insulin alone. A tracheal instillator for rodents, equipped with light (available from Penn Century, Inc., Pittsburgh, Pa.) was filled with dosing solution and inserted down the throat until the needle went into the trachea (confirmed visually). The dosing solution was administered by pressing the plunger.
Blood samples from each animal were collected serially from the tail artery, typically at 5, 15, 30, 60 and 120 minutes after dosing. […] The ratio of the area under the curve (AUC) for the test group versus that of the control group is reported below. The ratio of the maximum serum insulin concentration (Cmax) for the test group versus that of the control group is also reported below.

[3] = Insulin oral delivery, serum human insulin by ELISA; conditions: rats
Description: Oral dosing (PO) compositions of delivery agent compound and human zinc insulin (minimum 26 IU/mg available from Calbiochem—Novabiochem Corp, La Jolla, Calif.) were prepared in deionized water. […] The pH was adjusted to about 7 to 8.5 with NaOH or HCl. […] The final delivery agent compound dose, insulin dose and dose volume amounts are listed below in Table 8.
(§1) The typical dosing and sampling protocols were as follows.
Serum insulin levels were determined with an Insulin ELISA Test Kit (Kit # DSL-10-1600 from Diagnostic Systems Laboratories, Inc., Webster, Tex.), modifying the standard protocol in order to optimize the sensitivity and linear range of the standard curve for the volumes and concentrations of the samples used in the present protocol. […] The five values for each time point were averaged and the results plotted as serum insulin concentration versus time.

[4] = Low molecular weight heparin (LMWH) oral/intracolonic delivery, plasma LMWH by anti-Factor Xa assay; type: in vivo, Sprague-Dawley rats; conditions: IC, rats, LMWH 750 IU/kg, 1 ml/kg
Description: Oral dosing (PO) and/or intracolonic (IC) compositions containing a delivery agent compound and low molecular weight heparin (LMWH) were prepared in 25% aqueous propylene glycol. […] Typically, the delivery agent compound and LMWH (Parnaparin, 91 IU/mg average molecular weight about 5,000, available from Opocrin, Modena, Italy) (typically 90-105 IU/mg, average molecular weight about 5,000) were mixed by vortex as dry powders. This dry mixture was dissolved in 25% v/v aqueous propylene glycol, vortexed, and placed in a sonicator (37° C.) to produce a clear solution. The pH was adjusted to about 7 (6.5-8.5) with 2N aqueous NaOH. The dosing solution was sonicated to produce a clear solution. The final volume was adjusted to 3.0 ml.
(§2) The typical dosing and sampling protocols were as follows. […] The dosing solution was expressed slowly into the colon by pressing the syringe plunger.
Citrated blood samples were collected by cardiac puncture following the administration of ketamine (88 mg/kg), typically at 0.5, 1.0, 2.0, 3.0 and 4.0 hours after dosing. LMWH absorption was verified by an increase in plasma LMWH measured by the anti-Factor Xa assay CHROMOSTRATE™ Heparin anti-Xa assay (available from Organon Teknika Corporation, Durham, N.C.). […] The peak of these mean plasma LMWH concentrations is reported below in Table 5.

[5] = Interferon oral delivery, serum IFN by immunoassay; type: in vivo, Sprague-Dawley rats; conditions: rats, delivery agent compound 200 mg/kg, IFN 1 mg/kg, 1 ml/kg
Description: Dosing solutions of delivery agent compound and human interferon (IFN) were prepared in deionized water. […] This mixture was vortexed and placed in a sonicator (about 37° C.). The pH was adjusted to about 7.0 to 8.5 with aqueous NaOH. The mixture was vortexed to produce a uniform suspension or solution, also using sonication and heat if necessary.
as §1
Serum IFN concentrations were quantified using Cytoscreen Immunoassay Kit for human IFN-alpha (catalog # KHC4012 from Biosource International, Camarillo, Calif.). Previous studies indicated baseline values of about zero.

[6] = Heparin oral/intracolonic delivery, clotting time by activated partial thromboplastin time (APTT); type: in vivo, Sprague-Dawley rats; conditions: rats, baseline about 20 seconds
Description: Oral gavage (PO) and/or intracolonic (IC) dosing solutions containing a delivery agent compound and heparin sodium USP were prepared in 25% aqueous propylene glycol. […] This dry mixture was dissolved in 25% v/v aqueous propylene glycol, vortexed, and placed in a sonicator (about 37° C.). The pH was adjusted to about 7 (6.5 to 8.5) with aqueous NaOH (2N). The dosing solution was sonicated to produce a clear solution. The final volume was adjusted to about 3.0 ml.
as §2
Citrated blood samples were collected by cardiac puncture following the administration of ketamine (88 mg/kg), typically at 0.25, 0.5, 1.0 and 1.5 hours after dosing. Heparin absorption was verified by an increase in clotting time measured by the activated partial thromboplastin time (APTT) according to the method of Henry, J. B., Clinical Diagnosis and Management by Laboratory Methods, Philadelphia, Pa., W.B. Saunders (1979). Previous studies indicated baseline values of about 20 seconds.

[7] = Recombinant human growth hormone (rhGH) oral delivery, serum rhGH by immunoassay; conditions: oral gavage, rats; delivery agent compound 200 mg/kg, rhGH 3 mg/kg, volume dose 1 ml
Description: Oral gavage (PO) dosing solutions of delivery agent compound and rhGH in phosphate buffer were prepared by mixing. A solution of the delivery agent compound was made either with the sodium salt of the delivery agent compound or by converting the free acid to its sodium salt.
The typical dosing and sampling protocols were as follows. Male Sprague-Dawley rats weighing 200-250 g were fasted for 24 hours and administered ketamine (44 mg/kg) and chlorpromazine (1.5 mg/kg) 15 minutes prior to dosing and again as needed to maintain anesthesia. A dosing group of five animals was administered one of the dosing solutions. An 11 cm Rusch 8 French catheter was adapted to a 1 ml syringe with a pipette tip. The syringe was filled with dosing solution by drawing the solution through the catheter, which was then wiped dry. The catheter was placed down the esophagus leaving 1 cm of tubing past the incisors. The dosing solution was administered by pressing the syringe plunger.
Blood samples were collected serially from the tail artery typically at time=15, 30, 45, 60 and 90 minutes. The five samples from each time period were pooled (except for those samples for which standard deviation (SD) and standard error (SE) are reported). Serum rHGH concentrations were quantified by an rHGH immunoassay test kit (Kit # K1F4015 from Genzyme Corporation Inc., Cambridge, Mass.).

[8] = Daptomycin oral delivery, plasma daptomycin by HPLC; type: in vivo, Sprague-Dawley rats; conditions: rats, delivery agent compound dose 200 mg/kg, daptomycin dose 50 mg/kg, volume dose 1 mL/kg
Description: Dosing solutions containing a delivery agent compound and daptomycin (Cubist Pharmaceuticals, Cambridge, Mass.) were prepared in 0.9% normal saline. […] This mixture was vortexed and placed in a sonicator (about 37° C.). The pH was adjusted to about 7.0-7.5 with aqueous HCl or NaOH. […] The mixture was vortexed to produce a uniform solution, also using sonication if necessary. The delivery agent compound solution was mixed with daptomycin from a stock solution (200 mg daptomycin/mL in 0.9% normal saline and the pH adjusted, if necessary, to between 6.0-7.0 with NaOH or HCl). The stock solution was stored frozen (−20° C.) wrapped in foil, then thawed and warmed gradually to about 25° C. before using. The delivery agent-daptomycin mixture was vortexed at low speed to produce a uniform solution. The pH was adjusted to about 7.0-7.5 with aqueous NaOH. The solution was then diluted with 0.9% normal saline to the desired volume (usually 2.0 ml) and concentration and stored wrapped in foil before use.
as §1
Heparinized rat blood samples were collected via the ventral tail artery, typically at 0.25, 0.5, 0.75, 1.0, 2.0, and 4.0 hours after dosing, and stored on ice. Blood samples were then spun (centrifuged) at 11,500 rpm for 4 minutes at 4° C. to obtain the plasma (supernatant), which was stored at −70° C. The plasma daptomycin concentrations were measured by isocratic reversed phase HPLC, keeping samples at 4° C. during analysis. Blank plasma studies show baseline values of zero.
Daptomycin blood concentrations results from the individual animals in each dosage group were averaged for each time point.

[9] = delivery agent compound 100 mg/kg, insulin 3 mg/kg, 1 ml/kg
[10] = delivery agent compound 25 mg/kg
[11] = IC (intracolonic), delivery agent compound 50 mg/kg, heparin 25 mg/kg, volume dose 1 ml
[12] = delivery agent compound 200 mg/kg, insulin 0.5 mg/kg, 1 ml/kg
[13] = delivery agent compound 50 mg/kg

CC(=O)c1ccccc1OCc1ccc(C(=O)O)cc1 [Compound 1]
Mean Peak Serum sCT (pg/ml ± SD) (SE) ([1]; 150 mg/kg): 317 ± 405 pg/mL and 398 ± 237 pg/mL and 410 ± 471 pg/mL | Cmax (serum insulin) [2]: 74.237 μU/ml | Mean Peak Serum [INS] ± SD [3, 9]: 74.237 ± 1144.49 μU/ml | Mean Peak Plasma LMWH Concentration ± SD [4, 10]: 1.022 ± 0.432 IU/ml | Mean Peak Plasma LMWH Concentration ± SD ([4]; delivery agent compound 50 mg/kg, 50 mg/kg): 1.734 ± 0.192 IU/ml and 1.038 ± 0.338 IU/ml | Mean Peak Serum [IFN] ± SD [5]: 17.357 ± 38 ng/mL | Mean Peak APTT ± SD [6, 11]: 130.84 ± 118.18 s and 231.34 s

O=C(O)CCCCCCOc1ccccc1O [Compound 6, (2-hydroxyphenyl)-7-oxyheptanoic acid]
Mean Peak Serum [INS] ± SD [3, 12]: 129.5 ± 131.5 μU/ml | Mean Peak Plasma LMWH Concentration ± SD [4, 10]: 0.47 ± 0.17 IU/ml | Mean Peak Serum [IFN] ± SD [5]: 0.5696 ± 0.8 ng/mL | Mean Peak APTT ± SD [6, 11]: 157.4 ± 33.7 s and 99.8 ± 50.6 s | Mean Peak APTT ± SD ([6]; PO (oral gavage), delivery agent compound 300 mg/kg, heparin 100 mg/kg, volume dose 3 ml): 193 ± 61.2 s

CC(=O)c1ccccc1OCCCCC(=O)O [Compound 10]
Cmax (serum insulin) [2]: 63.5884 μU/ml | Mean Peak Serum [INS] ± SD [3, 9]: 63.5884 ± 129.23 μU/ml | Mean Peak Plasma LMWH Concentration ± SD [4, 13]: 0.088 ± 0.121 IU/ml | Mean Peak Serum [rhGH] [7]: 34.3 ng/mL | Mean Peak APTT ± SD [6, 11]: 81.8 ± 7 s and 63.5 s

O=C(O)CCCOc1ccccc1 [Compound 14]
Mean plasma Cmax [daptomycin] ± SD [8]: 14200 ± 24840 ng/mL | Mean Peak Serum [rhGH] [7]: 19.8 ng/mL

O=C(O)C=Cc1ccccc1OCCCCCCCC(=O)O [Compound 25]
Mean Peak Serum sCT (pg/ml ± SD) (SE) [1]: 53 ± 77 pg/mL | Cmax (serum insulin) [2]: 47.2162 μU/ml | Mean Peak Serum [INS] ± SD [3, 9]: 47.2162 ± 31.43 μU/ml | Mean Peak Serum [rhGH] [7]: 0 ng/mL

O=C(O)CCCCCCCOc1ccccc1C(=O)O [Compound 32]
Mean Peak Serum sCT (pg/ml ± SD) (SE) ([1]; 150 mg/kg): 175 ± 148 pg/mL and 103 ± 75 pg/mL and 187 ± 135 pg/mL | Mean Peak Serum [INS] ± SD [3, 12]: 3.12 ± 2.26 μU/ml | Mean Peak Serum [INS] ± SD ([3]; delivery agent compound 200 mg/kg, insulin 3 mg/kg, 1 ml/kg): 6.38 ± 4.42 μU/ml | Mean Peak Plasma LMWH Concentration ± SD [4, 13]: 0.07 ± 0.01 IU/ml | Mean Peak Serum [rhGH] [7]: 0 ng/mL | Mean Peak Serum [IFN] ± SD [5]: 0 ng/mL | Mean Peak APTT ± SD [6, 11]: 26.5 ± 2.3 s

O=C(O)CCCCCCCCCOc1cccc(O)c1 [Compound 44]
Mean Peak Serum sCT (pg/ml ± SD) (SE) [1]: 188 ± 184 pg/mL | Mean Ratio of AUC for insulin + compound versus AUC for insulin alone ([2]; pulmonary, volume 0.4 ml/kg, delivery agent compound 0.03 mg/kg, insulin 0.3 mg/kg (so in the source)): 0.76 | Mean Peak Serum [INS] ± SD ([3]; delivery agent compound 100 mg/kg, insulin 3 mg/kg, 0.5 ml/kg): 97.49 ± 134.1 μU/ml
